Measured values from US8658604B2, “Template-fixed beta-hairpin peptidomimetics with protease inhibitory activity” (Polyphor Ltd, priority 2005, dated 2014).
Where two headings read alike, the source gives them in different places. Where a SMILES comes first, the peptide text is derived from it.

Legend:
[1] = molecular target: Urokinase from human urine (Homo sapiens, UniProt P00749); test: Enzymatic assay, urokinase
[2] = test system: human red blood cells (hRBC); test: Hemolysis
[3] = molecular target: T1, Chymase, from human skin (Homo sapiens, UniProt P23946); test: Enzymatic assay, chymase
T1 sequence (P23946 22-247): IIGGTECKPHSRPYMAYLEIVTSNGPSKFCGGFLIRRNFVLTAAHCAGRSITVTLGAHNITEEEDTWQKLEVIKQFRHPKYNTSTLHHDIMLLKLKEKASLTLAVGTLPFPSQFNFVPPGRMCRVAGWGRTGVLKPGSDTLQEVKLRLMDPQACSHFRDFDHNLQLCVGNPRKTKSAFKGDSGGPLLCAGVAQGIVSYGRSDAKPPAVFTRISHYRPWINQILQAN

[4] = test system: HELA cells (Acc57); test: Cytotoxicity assay (MTT reduction), HELA cells; assay type: cell-based
In short: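 HeLa cells were grown for 24 h, then exposed to peptides at 12.5, 25 and 50 μM in triplicate for 48 h at 37 °C. MTT reduction was read at 595 nm and growth % calculated relative to time-zero wells. LC50 interpolated by linear trend at −50% growth, GI50 at 50%.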

[5] = test system: Tryptase, from human lung; test: Enzymatic assay, tryptase; details: at 100 μM
[6] = molecular target: T2, Elastase from human neutrophils (Homo sapiens, UniProt P08246); test: Enzymatic assay, elastase
T2 sequence (P08246 30-267): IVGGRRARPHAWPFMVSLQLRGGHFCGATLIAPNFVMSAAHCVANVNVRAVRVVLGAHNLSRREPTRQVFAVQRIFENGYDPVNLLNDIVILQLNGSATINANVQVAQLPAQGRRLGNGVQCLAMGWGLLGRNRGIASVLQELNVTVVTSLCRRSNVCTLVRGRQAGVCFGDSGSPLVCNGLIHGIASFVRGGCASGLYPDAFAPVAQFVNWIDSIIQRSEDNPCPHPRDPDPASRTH

[7] = molecular target: T3, CathepsinG, from human neutrophils (Homo sapiens, UniProt P08311); test: Enzymatic assay, cathepsin G
T3 sequence (P08311 21-244): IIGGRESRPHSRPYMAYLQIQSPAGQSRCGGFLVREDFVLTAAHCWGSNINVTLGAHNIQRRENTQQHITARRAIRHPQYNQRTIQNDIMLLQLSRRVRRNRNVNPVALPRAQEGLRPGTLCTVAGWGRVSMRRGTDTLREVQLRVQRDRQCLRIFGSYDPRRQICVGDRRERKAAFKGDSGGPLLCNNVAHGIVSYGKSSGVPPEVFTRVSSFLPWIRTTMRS

[8] = molecular target: Chymotrypsin, from human pancreas (Homo sapiens, UniProt P17538); test: Enzymatic assay, chymotrypsin; details: at 100 μM
[9] = molecular target: Coagulation Factor Xa, from uman plasma (Homo sapiens, UniProt P00742); test: Enzymatic assay, coagulation factor Xa
[10] = molecular target: Thrombin, from Human Plasma (Homo sapiens, UniProt P00734); test: Enzymatic assay, thrombin
[11] = molecular target: Trypsin, from human pancreas (Homo sapiens, UniProt P07477); test: Enzymatic assay, trypsin; details: at 100 μM

Sequence of Coagulation Factor Xa, from uman plasma (P00742 235-488 limits assumed): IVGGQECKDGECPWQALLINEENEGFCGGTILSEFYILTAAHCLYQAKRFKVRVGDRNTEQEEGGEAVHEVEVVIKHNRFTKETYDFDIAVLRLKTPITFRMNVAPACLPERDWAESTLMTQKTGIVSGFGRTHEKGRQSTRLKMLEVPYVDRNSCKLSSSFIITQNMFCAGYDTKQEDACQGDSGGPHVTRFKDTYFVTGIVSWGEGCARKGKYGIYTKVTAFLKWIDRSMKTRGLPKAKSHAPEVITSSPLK
Sequence of Coagulation Factor Xa, from uman plasma (P00742 41-179 limits assumed): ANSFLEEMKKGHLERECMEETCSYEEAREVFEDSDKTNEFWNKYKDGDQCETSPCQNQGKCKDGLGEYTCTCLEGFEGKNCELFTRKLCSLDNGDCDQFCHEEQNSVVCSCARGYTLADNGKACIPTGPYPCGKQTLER
Sequence of Chymotrypsin, from human pancreas (P17538 19-263): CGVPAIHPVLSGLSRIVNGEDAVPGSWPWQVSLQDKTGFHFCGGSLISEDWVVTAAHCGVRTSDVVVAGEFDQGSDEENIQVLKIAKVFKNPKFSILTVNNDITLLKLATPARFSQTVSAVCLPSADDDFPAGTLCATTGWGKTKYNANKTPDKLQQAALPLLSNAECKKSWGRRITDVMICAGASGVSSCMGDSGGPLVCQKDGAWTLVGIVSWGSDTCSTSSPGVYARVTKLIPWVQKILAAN

SMILES	Urokinase at 100 μM % [1] [%]	Hemolysis at 100 μM % [2] [%]	Chymase at 100 μM % [3] [%]	Cytotoxicity LC50/GI50 Hela cells ([4]; Hela cells) [µM]	Tryptase at 100 μM % [5] [%]	IC50 ([6]; Elastase IC50) [µM]	IC50 ([7]; Cathepsin G IC50) [µM]	Chymotrypsin at 100 μM % [8] [%]	FXa at 100 μM % [9] [%]	Thrombin at 100 μM % [10] [%]	Trypsin at 100 μM % [11] [%]	IC50 ([6]; read-out: Elastase IC50) [µM]	IC50 ([7]; read-out: Cathepsin G IC50) [µM]	Cytotoxicity LC50/GI50 Hela cells [4] [µM]	Elastase at 100 μM % ([6]; at 100 μM (stated in cell instead of IC50)) [at %]
CCCC[C@@H]1NC(=O)[C@@H]2CCCN2C(=O)[C@@H]2CCCN2C(=O)[C@H](CC(=O)O)NC(=O)[C@H](CO)NC(=O)[C@H](CCCCN)NC(=O)[C@H]([C@@H](C)O)NC(=O)[C@@H]2CSSC[C@H](NC1=O)C(=O)N[C@@H](Cc1ccc(O)cc1)C(=O)N1CCC[C@@H]1C(=O)N1CCC[C@H]1C(=O)N[C@@H](C1CCCCC1)C(=O)N2 [Ex. 63] (HELM PEPTIDE1{[O=C([C@@H](N[*:1])C1CCCCC1)[*:2]].C.T.K.S.D.P.P.[Nle].C.Y.[dP].P}$PEPTIDE1,PEPTIDE1,2:R3-10:R3|PEPTIDE1,PEPTIDE1,1:R1-13:R2$$$V2.0)	0	0	7	87	50	> 100	0.041	11	0	1	96				
CC[C@H](C)[C@@H]1NC(=O)[C@@H]2CCCN2C(=O)[C@@H]2CCCN2C(=O)[C@H](CC(=O)O)NC(=O)[C@H](CO)NC(=O)[C@H](CCCCN)NC(=O)[C@H]([C@@H](C)O)NC(=O)[C@@H]2CSSC[C@H](NC1=O)C(=O)N[C@@H](Cc1ccc(O)cc1)C(=O)N1CCC[C@@H]1C(=O)N1CCC[C@H]1C(=O)N[C@@H](C1CCCCC1)C(=O)N2 [Ex. 40] (HELM PEPTIDE1{[O=C([C@@H](N[*:1])C1CCCCC1)[*:2]].C.T.K.S.D.P.P.I.C.Y.[dP].P}$PEPTIDE1,PEPTIDE1,2:R3-10:R3|PEPTIDE1,PEPTIDE1,1:R1-13:R2$$$V2.0)	10	0.1	8	97	33	> 44.9	0.025	19	3	1	94				
CCCC[C@@H]1NC(=O)[C@H]([C@@H](C)O)NC(=O)[C@@H]2CSSC[C@H](NC(=O)[C@H]([C@@H](C)CC)NC(=O)[C@@H]3CCCN3C(=O)[C@@H]3CCCN3C(=O)[C@H](CC(=O)O)NC(=O)[C@H](CO)NC1=O)C(=O)N[C@@H](Cc1ccc(O)cc1)C(=O)N1CCC[C@@H]1C(=O)N1CCC[C@H]1C(=O)N[C@@H](Cc1ccccc1)C(=O)N2 [Ex. 60] (HELM PEPTIDE1{F.C.T.[Nle].S.D.P.P.I.C.Y.[dP].P}$PEPTIDE1,PEPTIDE1,2:R3-10:R3|PEPTIDE1,PEPTIDE1,1:R1-13:R2$$$V2.0)	9	0	60	51	29.4			4	11	0	90	> 100	0.038		
CC[C@H](C)[C@@H]1NC(=O)[C@@H]2CCCN2C(=O)[C@@H]2CCCN2C(=O)[C@H](CC(=O)O)NC(=O)[C@H](CO)NC(=O)[C@H](CCCCN)NC(=O)[C@H]([C@@H](C)O)NC(=O)[C@H](CCC(=O)O)NC(=O)[C@H](CCCNC(=N)N)NC(=O)[C@@H]2CCCN2C(=O)[C@H]2CCCN2C(=O)[C@H](Cc2ccccc2)NC(=O)[C@H](CCCNC(=N)N)NC1=O [Ex. 7] (HELM PEPTIDE1{R.E.T.K.S.D.P.P.I.R.F.[dP].P}$PEPTIDE1,PEPTIDE1,1:R1-13:R2$$$V2.0)	1.1	0.2	13.4		1.5		0.091	12	11.7	0	41			100	1.5
CC[C@H](C)[C@@H]1NC(=O)[C@@H]2CCCN2C(=O)[C@@H]2CCCN2C(=O)[C@H](CC(=O)O)NC(=O)[C@H](CO)NC(=O)[C@H](CCCCN)NC(=O)[C@H]([C@@H](C)O)NC(=O)[C@@H]2CSSC[C@H](NC1=O)C(=O)N[C@@H](CC(N)=O)C(=O)N1CCC[C@@H]1C(=O)N1CCC[C@H]1C(=O)N[C@@H](Cc1ccccc1)C(=O)N2 [Ex. 3] (HELM PEPTIDE1{F.C.T.K.S.D.P.P.I.C.N.[dP].P}$PEPTIDE1,PEPTIDE1,2:R3-10:R3|PEPTIDE1,PEPTIDE1,1:R1-13:R2$$$V2.0)	4	0	1	100	68	> 100	0.051	0	4	0	92				
CC[C@H](C)[C@@H]1NC(=O)[C@@H]2CCCN2C(=O)[C@@H]2CCCN2C(=O)[C@H](CC(=O)O)NC(=O)[C@H](CO)NC(=O)[C@H](CCCCN)NC(=O)[C@H]([C@@H](C)O)NC(=O)[C@@H]2CSSC[C@H](NC1=O)C(=O)N[C@@H](CO)C(=O)N1CCC[C@@H]1C(=O)N[C@@H](CC(=O)O)C(=O)N[C@@H](Cc1ccccc1)C(=O)N2 [Ex. 47] (HELM PEPTIDE1{F.C.T.K.S.D.P.P.I.C.S.[dP].D}$PEPTIDE1,PEPTIDE1,2:R3-10:R3|PEPTIDE1,PEPTIDE1,1:R1-13:R2$$$V2.0)	6.3	0	8.2	100	0	> 10	0.064	1	9.3	0	87				
CCCC[C@@H]1NC(=O)[C@@H]2CCCN2C(=O)[C@H]2CCCN2C(=O)[C@H](Cc2ccc(O)cc2)NC(=O)[C@@H]2CSSC[C@H](NC1=O)C(=O)N[C@@H]([C@@H](C)O)C(=O)N[C@@H](CCCCN)C(=O)N[C@@H](CO)C(=O)N[C@@H](CC(=O)O)C(=O)N1CCC[C@H]1C(=O)N1CCC[C@H]1C(=O)N[C@@H]([C@@H](C)CC)C(=O)N2 [Ex. 44] (HELM PEPTIDE1{[Nle].C.T.K.S.D.P.P.I.C.Y.[dP].P}$PEPTIDE1,PEPTIDE1,2:R3-10:R3|PEPTIDE1,PEPTIDE1,1:R1-13:R2$$$V2.0)	14	0.1	3	67	50	> 10	0.031	24	9	9	100				
CCCC[C@@H]1NC(=O)[C@@H]2CCCN2C(=O)[C@@H]2CCCN2C(=O)[C@H](CC(=O)O)NC(=O)[C@H](CO)NC(=O)[C@H](CCCCN)NC(=O)[C@H]([C@@H](C)O)NC(=O)[C@@H]2CSSC[C@H](NC1=O)C(=O)N[C@@H](CCCNC(=N)N)C(=O)N1CCC[C@@H]1C(=O)N1CCC[C@H]1C(=O)N[C@@H]([C@@H](C)CC)C(=O)N2 [Ex. 19] (HELM PEPTIDE1{I.C.T.K.S.D.P.P.[Nle].C.R.[dP].P}$PEPTIDE1,PEPTIDE1,2:R3-10:R3|PEPTIDE1,PEPTIDE1,1:R1-13:R2$$$V2.0)	4	0	26.9	100	85.2	> 100	0.041	0	32	11	94.0				
